Results from patent publication US6358885B1, “Substituted phenylheterocyclic herbicides” (Mississippi State University, priority 1992, dated 2002).

Assays:
purple nutsedge = experiment: Test B preemergence/postemergence greenhouse plant response rating 0 to 10; format: in vivo, Cyperus rotundus; conditions: 0 to 10 scale
How it was run: (§1)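 Both application timings were run together: seeds got compound preemergence, and established seedlings (two to eighteen cm) got it postemergence. Non-phytotoxic solvent carried the chemical. Ratings are visual, versus controls, at twelve to sixteen days.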

sorghum = experiment: as above; format: in vivo, Sorghum bicolor; conditions: 0 to 10 scale
How it was run: as §1

wild buckwheat = experiment: Test C preemergence/postemergence greenhouse plant response rating 0 to 100; format: in vivo, Polygonum convolvulus; conditions: PREEMERGENCE
Source text: (§2) The compounds evaluated in this test were formulated in a non-phytoxic solvent and applied to the soil surface before plant seedlings emerged (preemergence application), to water that covered the soil surface (flood application), and to plants that were in the one-to-four leaf stage (postemergence application). A sandy loam soil was used for the preemergence and postemergence tests, while a silt loam soil was used in the flood test. Water depth was approximately 2.5 cm for the flood test and was maintained at this level for the duration of the test. Plant species in the preemergence and postemergence tests consisted of barley (Hordeum vulgare), bedstraw (Galium aparine), blackgrass (Alopecurus myosuroides), chickweed (Stellaria media), corn (Zea mays), cotton (Gossypium hirsutum), crabgrass (Digitaria sanguinalis), downy brome (Bromus tectorum), giant foxtail (Setaria faberii), lambsquarters (Chenopodium album), morningglory (Ipomoea hederacea), pigweed ([…]), rape (Brassica napus), ryegrass (Lolium multiflorum), sorghum (Sorghum bicolor), soybean (Glycine max), speedwell (Veronica persica), sugar beet (Beta vulgaris), velvetleaf (Abutilon theophrasti), wheat (Triticum aestivum), wild buckwheat (Polygonum convolvulus), and wild oat (Avena fatua). All plant species were planted one day before application of the compound for the preemergence portion-of this test. Plantings of these species were adjusted to produce plants of appropriate size for the post-emergence portion of the test. […] All plant species were grown using normal greenhouse practices. Visual evaluations of injury expressed on treated plants, when compared to untreated controls, were recorded approximately fourteen to twenty one days after application of the test compound. […] A dash (-) response means no test result.

lambsquarters = experiment: as above; format: in vivo, Chenopodium album; conditions: PREEMERGENCE; for Plant response rating Lambsquarters: 0 to 100 scale
Source text: as §2

velvetleaf = experiment: as above; format: in vivo, Abutilon theophrasti; conditions: PREEMERGENCE
Source text: as §2

wheat [1] = experiment: as above; format: in vivo, Triticum aestivum; conditions: PREEMERGENCE
Source text: as §2

cotton [2] = experiment: Test B preemergence/postemergence greenhouse plant response rating 0 to 10; format: in vivo, Gossypium hirsutum; conditions: 0 to 10 scale
How it was run: as §1

sugar beet = experiment: as above; format: in vivo, Beta vulgaris; conditions: 0 to 10 scale
How it was run: as §1

blackgrass = experiment: as above; format: in vivo, Alopecurus myosuroides; conditions: 0 to 10 scale
How it was run: as §1

wheat [3] = experiment: as above; format: in vivo, Triticum aestivum; conditions: 0 to 10 scale
How it was run: as §1

wild oat = experiment: as above; format: in vivo, Avena fatua; conditions: 0 to 10 scale
How it was run: as §1

pigweed = experiment: Test C preemergence/postemergence greenhouse plant response rating 0 to 100; format: in vivo, Amaranthusretroflexus; conditions: PREEMERGENCE; for Plant response rating Pigweed: 0 to 100 scale
Source text: as §2

cotton [4] = experiment: as above; format: in vivo, Gossypium hirsutum; conditions: PREEMERGENCE; for Plant response rating, Cotton: 0 to 100 scale
Source text: as §2

rice = experiment: Test B preemergence/postemergence greenhouse plant response rating 0 to 10; format: in vivo, Oryza sativa; conditions: 0 to 10 scale
How it was run: as §1

crabgrass = experiment: as above; format: in vivo, Digitaria spp.; conditions: 0 to 10 scale
How it was run: as §1

corn = experiment: as above; format: in vivo, Zea mays; conditions: 0 to 10 scale
How it was run: as §1

CCCN1C(=O)COc2cc(F)c(-c3nn4c(c3Br)CCCC4)cc21 [Compound 63]
70: Plant response rating, Cotton (cotton [4]; 250 g/ha)
100: Plant response rating, Wild buckwheat (wild buckwheat; 250 g/ha, 0 to 100 scale) | Plant response rating Lambsquarters (lambsquarters; 250 g/ha) | Plant response rating, Velvetleaf (velvetleaf; 250 g/ha, 0 to 100 scale) | Plant response rating Pigweed (pigweed; 62 g/ha) | Plant response rating Pigweed (pigweed; 250 g/ha) | Plant response rating (0 to 100), Pigweed (pigweed; Rate 16 g/ha)
6: Plant response rating, Nutsedge (purple nutsedge; POSTEMERGENCE, Rate 50 g/ha) | Plant response rating, Wild oat (wild oat; POSTEMERGENCE, Rate 50 g/ha)
1: Plant response rating, Nutsedge (purple nutsedge; POSTEMERGENCE, Rate 10 g/ha)
3: Plant response rating, Sorghum (sorghum; POSTEMERGENCE, Rate 10 g/ha) | Plant response rating, Blackgrass (blackgrass; PREEMERGENCE, Rate 50 g/ha) | Plant response rating, Wild oat (wild oat; PREEMERGENCE, Rate 50 g/ha) | Plant response rating, Rice (rice; POSTEMERGENCE, Rate 10 g/ha) | Plant response rating, Crabgrass (crabgrass; POSTEMERGENCE, Rate 10 g/ha) | Plant response rating, Crabgrass (crabgrass; POSTEMERGENCE, Rate 50 g/ha)
4: Plant response rating, Blackgrass (blackgrass; POSTEMERGENCE, Rate 10 g/ha) | Plant response rating, Blackgrass (blackgrass; POSTEMERGENCE, Rate 50 g/ha) | Plant response rating, Wheat (wheat [3]; POSTEMERGENCE, Rate 10 g/ha) | Plant response rating, Wild oat (wild oat; POSTEMERGENCE, Rate 10 g/ha)
9: Plant response rating, Cotton (cotton [2]; POSTEMERGENCE, Rate 10 g/ha)
10: Plant response rating (0 to 100), Lambsquarters (lambsquarters; Rate 4 g/ha) | Plant response rating, Cotton (cotton [2]; POSTEMERGENCE, Rate 50 g/ha) | Plant response rating, Sugar beet (sugar beet; POSTEMERGENCE, Rate 10 g/ha) | Plant response rating, Sugar beet (sugar beet; POSTEMERGENCE, Rate 50 g/ha) | Plant response rating, Sugar beet (sugar beet; PREEMERGENCE, Rate 50 g/ha)
0: Plant response rating, Nutsedge (purple nutsedge; PREEMERGENCE, Rate 50 g/ha) | Plant response rating, Sorghum (sorghum; PREEMERGENCE, Rate 50 g/ha) | Plant response rating (0 to 100), Wild buckwheat (wild buckwheat; Rate 4 g/ha) | Plant response rating (0 to 100), Velvetleaf (velvetleaf; Rate 4 g/ha) | Plant response rating (0 to 100), Wheat (wheat [1]; Rate 4 g/ha) | Plant response rating (0 to 100), Wheat (wheat [1]; Rate 16 g/ha) | Plant response rating, Cotton (cotton [2]; PREEMERGENCE, Rate 10 g/ha) | Plant response rating, Blackgrass (blackgrass; PREEMERGENCE, Rate 10 g/ha) | Plant response rating (0 to 100), Pigweed (pigweed; Rate 4 g/ha) | Plant response rating (0 to 100), Cotton (cotton [4]; Rate 4 g/ha) | Plant response rating (0 to 100), Cotton (cotton [4]; Rate 16 g/ha) | Plant response rating, Rice (rice; PREEMERGENCE, Rate 50 g/ha) | Plant response rating, Crabgrass (crabgrass; PREEMERGENCE, Rate 10 g/ha) | Plant response rating, Crabgrass (crabgrass; PREEMERGENCE, Rate 50 g/ha) | Plant response rating, Corn (corn; PREEMERGENCE, Rate 50 g/ha)
20: Plant response rating (0 to 100), Lambsquarters (lambsquarters; Rate 16 g/ha) | Plant response rating (0 to 100), Velvetleaf (velvetleaf; Rate 16 g/ha) | Plant response rating, Cotton (cotton [4]; 62 g/ha)
5: Plant response rating, Sorghum (sorghum; POSTEMERGENCE, Rate 50 g/ha) | Plant response rating, Wheat (wheat [3]; POSTEMERGENCE, Rate 50 g/ha) | Plant response rating, Rice (rice; POSTEMERGENCE, Rate 50 g/ha)
2: Plant response rating, Cotton (cotton [2]; PREEMERGENCE, Rate 50 g/ha) | Plant response rating, Wheat (wheat [3]; PREEMERGENCE, Rate 50 g/ha) | Plant response rating, Corn (corn; POSTEMERGENCE, Rate 10 g/ha) | Plant response rating, Corn (corn; POSTEMERGENCE, Rate 50 g/ha)
95: Plant response rating Lambsquarters (lambsquarters; 62 g/ha)
50: Plant response rating (0 to 100), Wild buckwheat (wild buckwheat; Rate 16 g/ha) | Plant response rating, Wheat (wheat [1]; 250 g/ha, 0 to 100 scale)
